Where a name gives a salt, the structure may show the parent alone.
Experiment: Phase 1 dose escalation study: safety, treatment related AEs
Type: in vivo
Description: The subjects were 40-75 years old with BMI of 18.0-30 kg/m^2. Subjects having evidence of clinically relevant pathology, increased risk of stroke or of history venous thromboembolic events, or use of concomitant medication less than 14 days prior to admission to clinical research center (paracetamol allowed up to 3 days prior) were excluded.
The subjects were treated with placebo or at least one dose p.o., q.d. after a light breakfast for 7 days at dose levels of 200 mg, 500 mg, 750 mg and 1000 mg, respectively.

[1] = 200 to 1000 mg p.o., q.d., 7 days

CCNCCc1ccc(CN(CC)c2cc(OC)ccc2[C@@H]2CCc3cc(O)ccc3C2)cc1 [RAD1901, (6R)-6-(2-(N-(4-(2-(ethylamino)ethyl)benzyl)-N-ethylamino)-4-methoxyphenyl)-5,6,7,8-tetrahydronaphthalen-2-ol dihydrochloride]
Abdominal distension (treatment related AE) (750 mg, Gr3): 0 n(%)
Abdominal pain (treatment related AE) (750 mg, Gr3): 0 n(%)
Diarrhoea (treatment related AE) (750 mg, Gr3): 0 n(%)
Dizziness (treatment related AE) (750 mg, Gr3): 0 n(%)
Dyspepsia (treatment related AE) (750 mg, Gr3): 0 n(%)
Dysphagia (treatment related AE) (750 mg, Gr3): 0 n(%)
Flatulance (treatment related AE) (750 mg, Gr3): 0 n(%)
Headache (treatment related AE) (750 mg, Gr3): 0 n(%)
Hiccups (treatment related AE) (750 mg, Gr3): 0 n(%)
Hot flush (treatment related AE) (750 mg, Gr3): 0 n(%)
Myalgia (treatment related AE) (750 mg, Gr3): 0 n(%)
Nausea (treatment related AE) (750 mg, Gr3): 0 n(%)
Odynophagia (treatment related AE) (750 mg, Gr3): 0 n(%)
Oesophageal pain (treatment related AE) (750 mg, Gr3): 0 n(%)
Salivary hypersecretion (treatment related AE) (750 mg, Gr3): 0 n(%)
Sensation of a foreign body (treatment related AE) (750 mg, Gr3): 0 n(%)
Vomiting (treatment related AE) (750 mg, Gr3): 0 n(%)
Abdominal discomfort (treatment related AE) (1000 mg, Gr1): 0 n(%)
Abdominal distension (treatment related AE) (1000 mg, Gr1): 2 (29) n(%)
Abdominal pain (treatment related AE) (1000 mg, Gr1): 1 (14) n(%)
Diarrhoea (treatment related AE) (1000 mg, Gr1): 3 (43) n(%)
Dizziness (treatment related AE) (1000 mg, Gr1): 1 (14) n(%)
Dyspepsia (treatment related AE) (1000 mg, Gr1): 1 (14) n(%)
Dysphagia (treatment related AE) (1000 mg, Gr1): 0 n(%)
Flatulance (treatment related AE) (1000 mg, Gr1): 0 n(%)
Headache (treatment related AE) (1000 mg, Gr1): 2 (29) n(%)
Hiccups (treatment related AE) (1000 mg, Gr1): 2 (29) n(%)
Hot flush (treatment related AE) (1000 mg, Gr1): 1 (14) n(%)
Myalgia (treatment related AE) (1000 mg, Gr1): 0 n(%)
Nausea (treatment related AE) (1000 mg, Gr1): 4 (57) n(%)
Odynophagia (treatment related AE) (1000 mg, Gr1): 1 (14) n(%)
Oesophageal pain (treatment related AE) (1000 mg, Gr1): 1 (14) n(%)
Salivary hypersecretion (treatment related AE) (1000 mg, Gr1): 2 (29) n(%)
Sensation of a foreign body (treatment related AE) (1000 mg, Gr1): 4 (57) n(%)
Vomiting (treatment related AE) (1000 mg, Gr1): 0 n(%)
Abdominal discomfort (treatment related AE) (1000 mg, Gr2): 0 n(%)
Abdominal distension (treatment related AE) (1000 mg, Gr2): 0 n(%)
Abdominal pain (treatment related AE) (1000 mg, Gr2): 1 n(%)
Diarrhoea (treatment related AE) (1000 mg, Gr2): 1 n(%)
Dizziness (treatment related AE) (1000 mg, Gr2): 0 n(%)
Dyspepsia (treatment related AE) (1000 mg, Gr2): 1 n(%)
Dysphagia (treatment related AE) (1000 mg, Gr2): 0 n(%)
Flatulance (treatment related AE) (1000 mg, Gr2): 0 n(%)
Headache (treatment related AE) (1000 mg, Gr2): 0 n(%)
Hiccups (treatment related AE) (1000 mg, Gr2): 0 n(%)
Hot flush (treatment related AE) (1000 mg, Gr2): 0 n(%)
Myalgia (treatment related AE) (1000 mg, Gr2): 0 n(%)
Nausea (treatment related AE) (1000 mg, Gr2): 2 n(%)
Odynophagia (treatment related AE) (1000 mg, Gr2): 1 n(%)
Oesophageal pain (treatment related AE) (1000 mg, Gr2): 1 n(%)
Salivary hypersecretion (treatment related AE) (1000 mg, Gr2): 0 n(%)
Sensation of a foreign body (treatment related AE) (1000 mg, Gr2): 0 n(%)
Vomiting (treatment related AE) (1000 mg, Gr2): 3 n(%)
Abdominal discomfort (treatment related AE) (1000 mg, Gr3): 0 n(%)
Abdominal distension (treatment related AE) (1000 mg, Gr3): 0 n(%)
Abdominal pain (treatment related AE) (1000 mg, Gr3): 0 n(%)
Diarrhoea (treatment related AE) (1000 mg, Gr3): 0 n(%)
Dizziness (treatment related AE) (1000 mg, Gr3): 0 n(%)
Dyspepsia (treatment related AE) (1000 mg, Gr3): 0 n(%)
Dysphagia (treatment related AE) (1000 mg, Gr3): 0 n(%)
Flatulance (treatment related AE) (1000 mg, Gr3): 0 n(%)
Headache (treatment related AE) (1000 mg, Gr3): 0 n(%)
Hiccups (treatment related AE) (1000 mg, Gr3): 0 n(%)
Hot flush (treatment related AE) (1000 mg, Gr3): 0 n(%)
Myalgia (treatment related AE) (1000 mg, Gr3): 0 n(%)
Nausea (treatment related AE) (1000 mg, Gr3): 0 n(%)
Odynophagia (treatment related AE) (1000 mg, Gr3): 0 n(%)
Oesophageal pain (treatment related AE) (1000 mg, Gr3): 1 n(%)
Salivary hypersecretion (treatment related AE) (1000 mg, Gr3): 0 n(%)
Sensation of a foreign body (treatment related AE) (1000 mg, Gr3): 0 n(%)
Vomiting (treatment related AE) (1000 mg, Gr3): 0 n(%)
dose limiting toxicities (in words) [1]: No dose limiting toxicities (DLT) were observed
maximum tolerated dose (MTD) (in words) [1]: not established
Abdominal discomfort (treatment related AE) (Total Active, Gr1): 4 n(%)
Abdominal distension (treatment related AE) (Total Active, Gr1): 5 n(%)
Abdominal pain (treatment related AE) (Total Active, Gr1): 7 n(%)
Diarrhoea (treatment related AE) (Total Active, Gr1): 6 n(%)
Dizziness (treatment related AE) (Total Active, Gr1): 5 n(%)
Dyspepsia (treatment related AE) (Total Active, Gr1): 13 n(%)
Dysphagia (treatment related AE) (Total Active, Gr1): 4 n(%)
Flatulance (treatment related AE) (Total Active, Gr1): 5 n(%)
Headache (treatment related AE) (Total Active, Gr1): 9 n(%)
Hiccups (treatment related AE) (Total Active, Gr1): 9 n(%)
Hot flush (treatment related AE) (Total Active, Gr1): 11 n(%)
Myalgia (treatment related AE) (Total Active, Gr1): 3 n(%)
Nausea (treatment related AE) (Total Active, Gr1): 14 n(%)
Odynophagia (treatment related AE) (Total Active, Gr1): 4 n(%)
Oesophageal pain (treatment related AE) (Total Active, Gr1): 3 n(%)
Salivary hypersecretion (treatment related AE) (Total Active, Gr1): 8 n(%)
Sensation of a foreign body (treatment related AE) (Total Active, Gr1): 7 n(%)
Vomiting (treatment related AE) (Total Active, Gr1): 3 n(%)
Abdominal discomfort (treatment related AE) (Total Active, Gr2): 1 n(%)
Abdominal distension (treatment related AE) (Total Active, Gr2): 1 n(%)
Abdominal pain (treatment related AE) (Total Active, Gr2): 3 n(%)
Diarrhoea (treatment related AE) (Total Active, Gr2): 1 n(%)
Dizziness (treatment related AE) (Total Active, Gr2): 0 n(%)
Dyspepsia (treatment related AE) (Total Active, Gr2): 3 n(%)
Dysphagia (treatment related AE) (Total Active, Gr2): 3 n(%)
Flatulance (treatment related AE) (Total Active, Gr2): 0 n(%)
Headache (treatment related AE) (Total Active, Gr2): 1 n(%)
Hiccups (treatment related AE) (Total Active, Gr2): 0 n(%)
Hot flush (treatment related AE) (Total Active, Gr2): 0 n(%)
Myalgia (treatment related AE) (Total Active, Gr2): 2 n(%)
Nausea (treatment related AE) (Total Active, Gr2): 5 n(%)
Odynophagia (treatment related AE) (Total Active, Gr2): 2 n(%)
Oesophageal pain (treatment related AE) (Total Active, Gr2): 6 n(%)
Salivary hypersecretion (treatment related AE) (Total Active, Gr2): 0 n(%)
Sensation of a foreign body (treatment related AE) (Total Active, Gr2): 0 n(%)
Vomiting (treatment related AE) (Total Active, Gr2): 10 n(%)
Abdominal discomfort (treatment related AE) (Total Active, Gr3): 0 n(%)
Abdominal distension (treatment related AE) (Total Active, Gr3): 0 n(%)
Abdominal pain (treatment related AE) (Total Active, Gr3): 0 n(%)
Diarrhoea (treatment related AE) (Total Active, Gr3): 0 n(%)
Dizziness (treatment related AE) (Total Active, Gr3): 0 n(%)
Dyspepsia (treatment related AE) (Total Active, Gr3): 0 n(%)
Dysphagia (treatment related AE) (Total Active, Gr3): 0 n(%)
Flatulance (treatment related AE) (Total Active, Gr3): 0 n(%)
Headache (treatment related AE) (Total Active, Gr3): 0 n(%)
Hiccups (treatment related AE) (Total Active, Gr3): 0 n(%)
Hot flush (treatment related AE) (Total Active, Gr3): 0 n(%)
Myalgia (treatment related AE) (Total Active, Gr3): 0 n(%)
Nausea (treatment related AE) (Total Active, Gr3): 0 n(%)
Odynophagia (treatment related AE) (Total Active, Gr3): 0 n(%)
Oesophageal pain (treatment related AE) (Total Active, Gr3): 1 n(%)
Salivary hypersecretion (treatment related AE) (Total Active, Gr3): 0 n(%)
Sensation of a foreign body (treatment related AE) (Total Active, Gr3): 0 n(%)
Vomiting (treatment related AE) (Total Active, Gr3): 1 n(%)
Abdominal discomfort (treatment related AE) (Total TEAE, All): 5 (11)
Abdominal distension (treatment related AE) (Total TEAE, All): 6 (14)
Abdominal pain (treatment related AE) (Total TEAE, All): 10 (23)
Diarrhoea (treatment related AE) (Total TEAE, All): 7 (16)
Dizziness (treatment related AE) (Total TEAE, All): 5 (11)
Dyspepsia (treatment related AE) (Total TEAE, All): 16 (36)
Dysphagia (treatment related AE) (Total TEAE, All): 7 (16)
Flatulance (treatment related AE) (Total TEAE, All): 5 (11)
Headache (treatment related AE) (Total TEAE, All): 10 (23)
Hiccups (treatment related AE) (Total TEAE, All): 9 (20)
Hot flush (treatment related AE) (Total TEAE, All): 11 (25)
Myalgia (treatment related AE) (Total TEAE, All): 5 (11)
Nausea (treatment related AE) (Total TEAE, All): 19 (43)
Odynophagia (treatment related AE) (Total TEAE, All): 6 (14)
Oesophageal pain (treatment related AE) (Total TEAE, All): 10 (23)
Salivary hypersecretion (treatment related AE) (Total TEAE, All): 8 (18)
Sensation of a foreign body (treatment related AE) (Total TEAE, All): 7 (16)
Vomiting (treatment related AE) (Total TEAE, All): 14 (32)

Reference: patent US12582617B2, “Methods for treating cancer” (RADIUS PHARMACEUTICALS, INC., priority 2015, dated 2026)
